Paper PMC6657216, “Defining the Contribution of CYP1A1 and CYP1A2 to Drug Metabolism Using Humanized CYP1A1/1A2 and Cyp1a1/Cyp1a2 Knockout Mice” (Drug Metabolism and Disposition, 2019)
Values joined by “and” are separate entries in the source; they are usually repeats but may differ in a detail not shown here. Equal values may be shown once. Read-outs that look alike come from different tables or passages of the source. Values belong to the molecule of their own block, whether it stands above or below them.

Columns and labels:
[1] = tested on: liver microsomes from TCDD-treated hCYP1A1/1A2 mice; assay: EROD in liver microsomes from TCDD-treated hCYP1A1/1A2 mice: individual contribution of CYP1A1, CYP1A2 and non-Cyp1a; format: in vitro ADME, mouse
Protocol: (§1) Protein enzyme/concentrations were 3.46 pmol/ml for recombinant human CYP1A1, 10.8 pmol/ml for recombinant human CYP1A2, 0.05 mg protein/ml for liver microsomes from TCDD-treated hCYP1A1/1A2 mice, and 0.25 mg protein/ml for liver microsomes from TCDD-treated Cyp1 KO mice and vehicle-treated hCYP1A1/1A2 mice. Where needed, total protein concentration in the reaction mixtures was adjusted using Control Bactosomes (Cypex), so all reactions (including those with the recombinant cytochrome P450s) were carried out at a total protein concentration of 0.25 mg protein/ml. Generation of fluorescent product was registered in a kinetic mode (excitation filter, 530 nm; emission filter, 584 nm). Slopes of the linear part of the kinetic curves were calculated using Ascent Software version 2.4.1 (Labsystems). For each well with the reaction medium, there was a control well containing the reaction mixture with resorufin (40 pmol). Before addition of NADPH to the reaction wells, fluorescence was recorded both from the reaction and from the control wells. The average fluorescence was calculated, and the difference between wells with and without resorufin was used for the conversion of the relative fluorescence units to the picomoles of the reaction product.

liver microsomes = assay: Constitutive EROD and MROD activity in liver microsomes of WT, Cyp1a KO and hCYP1A1/1A2 mice; format: in vitro ADME, mouse
Protocol: A mixture of ER (0.93 μM) or MR (0.46 μM) and liver microsomes (0.004–0.27 mg protein/ml) in 100 mM potassium phosphate buffer (pH 7.4) supplemented with MgCl2 (3.3 mM) was incubated at 37°C for 5 minutes before the reaction was initiated by injection of NADPH (final concentration, 1.2 mM). […] Activities in duodenum, ileum, jejunum, colon, lung, kidney, spleen, heart, brain, and testis microsomes were measured as described earlier except for the following adjustments: MR concentration was 1 μM, concentration of total microsomal protein in the reaction was in the range of 0.07–0.43 mg/ml, and amount of resorufin added to calculate the reaction product concentration was 40 pmol.

recombinant human CYP1A2 [2] = molecular target: T1, recombinant human CYP1A2 (Homo sapiens, UniProt P05177)
T1 sequence (P05177 1-516): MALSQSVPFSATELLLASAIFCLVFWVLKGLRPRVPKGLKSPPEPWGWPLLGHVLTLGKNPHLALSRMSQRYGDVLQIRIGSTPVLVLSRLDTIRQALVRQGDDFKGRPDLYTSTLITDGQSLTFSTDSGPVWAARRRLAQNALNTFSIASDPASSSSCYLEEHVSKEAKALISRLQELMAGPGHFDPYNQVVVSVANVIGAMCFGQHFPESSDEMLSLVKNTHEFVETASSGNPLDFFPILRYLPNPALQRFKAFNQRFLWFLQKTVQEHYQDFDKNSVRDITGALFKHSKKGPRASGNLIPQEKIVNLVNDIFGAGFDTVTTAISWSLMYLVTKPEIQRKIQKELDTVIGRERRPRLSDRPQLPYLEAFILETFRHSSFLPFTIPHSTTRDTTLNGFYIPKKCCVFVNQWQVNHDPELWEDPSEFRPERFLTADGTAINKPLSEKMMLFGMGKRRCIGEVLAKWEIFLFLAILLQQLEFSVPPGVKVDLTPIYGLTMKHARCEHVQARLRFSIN
Protocol: as §1

Recombinant rat CYP1A1 = tested on: Recombinant rat CYP1A1; design: method as in Namkung et al., 1988; details: recombinant rat enzymes; ref Namkung et al., 1988; cited from earlier work
recombinant human CYP1A1 [3] = molecular target: T2, recombinant human CYP1A1 (Homo sapiens, UniProt P04798); assay: EROD by recombinant human CYP1A1 with and without quinidine
T2 sequence (P04798 1-512): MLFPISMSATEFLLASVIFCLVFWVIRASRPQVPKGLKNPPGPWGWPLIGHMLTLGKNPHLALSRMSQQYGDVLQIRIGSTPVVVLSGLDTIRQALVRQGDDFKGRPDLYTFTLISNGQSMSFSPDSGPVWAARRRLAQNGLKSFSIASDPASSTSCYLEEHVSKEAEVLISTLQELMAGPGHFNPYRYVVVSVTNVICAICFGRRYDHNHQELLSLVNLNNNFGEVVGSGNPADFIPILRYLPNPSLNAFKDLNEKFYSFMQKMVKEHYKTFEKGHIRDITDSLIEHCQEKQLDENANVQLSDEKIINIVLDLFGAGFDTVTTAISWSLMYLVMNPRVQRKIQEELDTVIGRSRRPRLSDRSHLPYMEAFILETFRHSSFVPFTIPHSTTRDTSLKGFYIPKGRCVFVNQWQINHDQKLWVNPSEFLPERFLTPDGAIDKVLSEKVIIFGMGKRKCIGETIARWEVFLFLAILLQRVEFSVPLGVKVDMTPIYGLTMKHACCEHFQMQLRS
Protocol: (§2) Where needed, total protein concentration in the reaction mixtures was adjusted using Control Bactosomes (Cypex), so all reactions (including those with the recombinant cytochrome P450s) were carried out at a total protein concentration of 0.25 mg protein/ml. […] Slopes of the linear part of the kinetic curves were calculated using Ascent Software version 2.4.1 (Labsystems). For each well with the reaction medium, there was a control well containing the reaction mixture with resorufin (40 pmol). Before addition of NADPH to the reaction wells, fluorescence was recorded both from the reaction and from the control wells. The average fluorescence was calculated, and the difference between wells with and without resorufin was used for the conversion of the relative fluorescence units to the picomoles of the reaction product.

recombinant human CYP1A1 [4] = molecular target: T2, recombinant human CYP1A1; design: host or cells: bacteria (membrane / 'bacterial microsomes' preparation); method as in Liu et al., 2004; details: recombinant human enzymes; ref Liu et al., 2004; cited from earlier work
[5] = tested on: liver microsomes from TCDD-treated Cyp1a KO mice (non-Cyp1a component); assay: EROD in liver microsomes from TCDD-treated Cyp1a KO mice with and without quinidine
Protocol: as §1

[6] = tested on: liver microsomes from TCDD-treated hCYP1A1/1A2 mice; assay: MROD in liver microsomes from TCDD-treated hCYP1A1/1A2 mice: individual contribution of CYP1A1, CYP1A2 and non-Cyp1a; format: in vitro ADME, mouse
Protocol: as §1

recombinant human CYP1A1 [7] = molecular target: T2, recombinant human CYP1A1; assay: MROD by recombinant human CYP1A1, inhibition by quinidine
Protocol: (§3) Slopes of the linear part of the kinetic curves were calculated using Ascent Software version 2.4.1 (Labsystems).
as §2

recombinant human CYP1A2 [8] = molecular target: T1, recombinant human CYP1A2; assay: MROD by recombinant human CYP1A2, inhibition by quinidine; details: for Kd: MROD, rCYP1A2
Protocol: as §3, §2

[9] = tested on: liver microsomes from TCDD-treated Cyp1a KO mice (non-Cyp1a component); assay: MROD in liver microsomes from TCDD-treated Cyp1a KO mice with and without quinidine
Protocol: as §1

[10] = tested on: EROD activity of liver microsomes from vehicle-treated hCYP1A1/1A2 mice; assay: EROD in liver microsomes from vehicle-treated hCYP1A1/1A2 mice with quinidine; format: biochemical; details: hCYP1A1/1A2 humanized, mouse, pH 7.4
Protocol: as §1

[11] = tested on: liver microsomes from vehicle-treated hCYP1A1/1A2 mice; assay: MROD in liver microsomes from vehicle-treated hCYP1A1/1A2 mice with quinidine; format: biochemical, mouse; details: 200 μM quinidine
Protocol: as §1

[12] = tested on: EROD activity, non-Cyp1a component of the liver microsomes; assay: in vitro; details: mouse, pH 7.4
Protocol: as §1

[13] = tested on: MROD activity, non-Cyp1a component of the liver microsomes; assay: in vitro; details: mouse, pH 7.4
Protocol: as §1

recombinant human CYP1A1 [14] = molecular target: T2, recombinant human CYP1A1; assay: biochemical
Protocol: as §3, §2

[15] = liver microsomes from TCDD-treated hCYP1A1/1A2 mice, nonlinear regression eq. 7
[16] = quinidine 200 μM, low concentration of ER
[17] = 200 μM quinidine, increased substrate concentration
[18] = 200 μM quinidine, low concentrations of MR
[19] = absence of inhibitor, low substrate concentrations
[20] = liver microsomes from TCDD-treated hCYP1A1/1A2 mice, nonlinear regression eq. 8

SMILES: CCOc1ccc2nc3ccc(=O)cc-3oc2c1 [ER, 7-ethoxyresorufin]
CYP1A1 contribution to EROD ([1]; absence of quinidine, 1 μM ER): 70%
CYP1A2 contribution to EROD ([1]; absence of quinidine, 6 μM ER): ~45%
CYP1A1 contribution to EROD ([1]; absence of quinidine, 6 μM substrate): ~51%
CYP1A1 contribution to EROD ([1]; absence of quinidine, low (10 pM) substrate concentration): ~94%
CYP1A2 contribution to EROD ([1]; absence of quinidine, low substrate concentration): ~4.8%
Vmax for CYP1A1, EROD [1, 15]: 2800 pmol/min/mg protein
Vmax for CYP1A2, EROD [1, 15]: 1900 pmol/min/mg protein and 1909 pmol/min/mg protein
CYP1A1 contribution to EROD [1, 16]: ~22%
CYP1A2 contribution to EROD [1, 16]: 70%
non-CYP1A contribution to EROD [1, 16]: 8%
decrease of EROD activity relative to WT animals (liver microsomes; liver microsomes from Cyp1a KO mice, untreated): 22%
constitutive EROD activity relative to WT (liver microsomes; liver microsomes from hCYP1A1/1A2 mice): 155%
Km (recombinant human CYP1A2 [2]; read-out: Km ± S.E., EROD, rCYP1A2): 1200 nM
EROD activity of CYP1A1 compared to CYP1A2 (times more active) (Recombinant rat CYP1A1): ~59 times
Kd (recombinant human CYP1A1 [3]; read-out: Ks1 ± S.E., EROD, rCYP1A1, productive enzyme-substrate complex): 0.09 ± 0.008 µM
Kd (recombinant human CYP1A1 [3]; read-out: Ks2 ± S.E., EROD, rCYP1A1, inhibitory enzyme-substrate complex): 11 ± 1 µM
kcat (recombinant human CYP1A1 [3]; recombinant CYP1A1, Vmax 3300 at 71 pmol/mg protein): 47 min⁻¹
Vmax (recombinant human CYP1A1 [3]; recombinant CYP1A1, enzyme concentration 71 pmol/mg protein): 3300 pmol/min/mg protein
EROD activity of CYP1A1 compared with CYP1A2 (times more active) (recombinant human CYP1A1 [4]): ~2.8 times
Kd ([5]; read-out: Ks1 ± S.E.): 0.83 ± 0.04 µM
Kd ([5]; read-out: Ks2 ± S.E.): 13 ± 1.5 µM

SMILES: COc1ccc2nc3ccc(=O)cc-3oc2c1 [MR, 7-methoxyresorufin]
Non-Cyp1a contribution to MROD [6]: ≤ 1.5%
CYP1A1 contribution to MROD [6, 17]: ~9%
CYP1A2 contribution to MROD [6, 17]: ~90%
CYP1A1 contribution to MROD [6, 18]: less than 1%
CYP1A2 contribution to MROD [6, 18]: ~98%
CYP1A1 contribution to MROD ([6]; absence of inhibitor, 6 μM MR): ~18%
CYP1A2 contribution to MROD ([6]; absence of inhibitor, 6 μM MR): ~81%
CYP1A1 contribution to MROD [6, 19]: 49%
CYP1A2 contribution to MROD [6, 19]: 50%
Vmax for CYP1A1, MROD [6, 20]: 1600 pmol/min/mg protein
Vmax for CYP1A2, MROD [6, 20]: 2000 pmol/min/mg protein and 1969 pmol/min/mg protein
MROD activity compared with WT animals (liver microsomes; hCYP1A1/1A2 mouse line liver microsomes): unchanged
decrease of MROD compared with WT animals (liver microsomes; liver microsomes from Cyp1a KO mice): approximately 90%
MROD activity of CYP1A1 compared to CYP1A2 (times less active) (Recombinant rat CYP1A1): ~14 times
Kd (recombinant human CYP1A1 [7]; read-out: Ks1 ± S.E., rCYP1A1): 470 ± 70 nM
Kd (recombinant human CYP1A1 [7]; read-out: Ks2 ± S.E., rCYP1A1): 1300 ± 180 nM
Kd (recombinant human CYP1A2 [8]; read-out: Ks1 ± S.E.): 0.58 ± 0.08 µM
Kd (recombinant human CYP1A2 [8]; read-out: Ks2 ± S.E.): 12 ± 3.5 µM
MROD activity of CYP1A1 compared with CYP1A2 (times less active) (recombinant human CYP1A1 [4]): ~5.8 times
Kd ([9]; read-out: Ks1 ± S.E.): 960 ± 180 nM
Kd ([9]; read-out: Ks2 ± S.E.): 3400 ± 800 nM

inhibition at 200 μM [10]: ~20%
effect on MROD [11]: not affected
inhibition of EROD activity catalyzed by CYP1A2 (recombinant human CYP1A2 [2]; quinidine 0, 30, 200 μM): did not inhibit
Ki ([12]; Cyp1a KO): > 200 µM
Ki [12]: 422 ± 18 µM
Ki ([13]; Cyp1a KO): > 200 µM
Ki [13]: 272 ± 28 µM
IC50 (recombinant human CYP1A1 [14]): 5.8 µM
Ki (recombinant human CYP1A1 [14]): 2200 ± 180 nM
Quinidine Inhibition Type (recombinant human CYP1A1 [7]; rCYP1A1): Competitive
inhibition of MROD activity catalyzed by CYP1A2 (recombinant human CYP1A2 [8]; quinidine 0, 30, 200 μM): did not inhibit
Ki (recombinant human CYP1A1 [3]): 3.3 ± 0.35 µM
Quinidine Inhibition Type (recombinant human CYP1A1 [3]; EROD, rCYP1A1): Mixed
α (recombinant human CYP1A1 [3]; EROD, rCYP1A1, effect of inhibitor binding on substrate binding): 31 ± 8
SMILES: C=C[C@H]1C[N@@]2CC[C@H]1C[C@@H]2[C@@H](O)c1ccnc2ccc(OC)cc12 [quinidine]
